In article PMC4216756 (Clinical cancer research : an official journal of the …, 2014):
Several values for one entry are separate records, joined by “and”; a condition that tells them apart may be missing. Equal values may be shown once. Read-outs that look alike come from different tables or passages of the source.

Assays:
[1] = system: TETs; details: single-agent belinostat, cited from earlier work
[2] = system: γ-H2AX expression on CD3+ and CD14+ cells; assay: DNA damage: γ-H2AX expression in PBMC; type: in vivo, human
[3] = system: patients with advanced thymic epithelial tumors; assay: Safety: treatment-related adverse events; type: in vivo, human
[4] = system: Thymic carcinoma; assay: Phase I/II efficacy; type: in vivo, human; details: belinostat + PAC
[5] = system: protein acetylation, tubulin acetylation, p21 in PBMC; assay: Protein/tubulin acetylation and p21 in PBMC by multiparametric flow cytometry; type: in vivo, human
[6] = system: Regulatory T cells and CD8+ T cells; assay: T cell subsets and immune markers in PBMC by flow cytometry; type: in vivo, human
[7] = system: Thymoma; assay: Phase I/II efficacy; type: in vivo, human; details: belinostat + PAC
[8] = system: patients with advanced thymic epithelial tumors; assay: Phase I dose escalation; type: in vivo, human
[9] = cited from earlier work
[10] = system: thymic epithelial tumors; assay: Phase I/II efficacy; type: in vivo, human
[11] = Plasma pharmacokinetics of belinostat, 48-hr CIVI, cycle 1; type: in vivo, human; details: for clearance / half-life: human, plasma, intravenous; for half-life: cycle 1, n=25
[12] = Dose level 1 (n=24), belinostat 1000 mg/m^2 + PAC
[13] = Dose level 2 (n=2), belinostat 2000 mg/m^2 + PAC
[14] = following belinostat plus chemotherapy, p<0.0001
[15] = 23 evaluable patients treated at dose level 1
[16] = belinostat + PAC, Total, 25 evaluable patients

Compound: O=C(/C=C/c1cccc(S(=O)(=O)Nc2ccccc2)c1)NO [belinostat, N-hydroxy-3-(phenylsulphamoylphenyl) acrylamide]
- Patients with stable disease ([1]; of 41 patients): 25 patients
- Median overall survival ([1]; overall population): 19.1 months
- Median time to progression ([1]; overall population): 5.8 months
- Responses in patients with thymic carcinoma [1]: no responses
- γ-H2AX expression on CD3+ cells ([2]; after belinostat alone, p=0.033): increased
- γ-H2AX expression on CD14+ cells ([2]; after belinostat alone, p=0.41): did not increase significantly
- γ-H2AX expression on CD14+ cells ([2]; after belinostat plus chemotherapy, p=0.012): increased
- γ-H2AX expression on CD3+ cells ([2]; following belinostat plus chemotherapy, p=0.01): increased
- Alanine aminotransferase increased, Grade 3/4 (%) ([3]; All dose levels (n= 26)): 4 (15) n (%)
- Aspartate aminotransferase increased, Grade 3/4 (%) ([3]; All dose levels (n= 26)): 6 (23) n (%)
- Atrial fibrillation, Grade 3/4 (%) ([3]; All dose levels (n= 26)): 1 (4) n (%)
- Ejection fraction decreased, Grade 3/4 (%) ([3]; All dose levels (n= 26)): 1(4) n (%)
- Electrocardiogram QT corrected interval prolonged, Grade 3/4 (%) ([3]; All dose levels (n= 26)): 1(4) n (%)
- Enterocolitis infectious, Grade 3/4 (%) ([3]; All dose levels (n= 26)): 2(8) n (%)
- Febrile neutropenia, Grade 3/4 (%) ([3]; All dose levels (n= 26)): 3(12) n (%)
- Hearing impaired, Grade 3/4 (%) ([3]; All dose levels (n= 26)): 1(4) n (%)
- Hypermagnesemia, Grade 3/4 (%) ([3]; All dose levels (n= 26)): 3 (12) n (%)
- Hypoalbuminemia, Grade 3/4 (%) ([3]; All dose levels (n= 26)): 2(8) n (%)
- Hypocalcemia, Grade 3/4 (%) ([3]; All dose levels (n= 26)): 2(8) n (%)
- Hypokalemia, Grade 3/4 (%) ([3]; All dose levels (n= 26)): 4(15) n (%)
- Hypomagnesemia, Grade 3/4 (%) ([3]; All dose levels (n= 26)): 1(4) n (%)
- Hyponatremia, Grade 3/4 (%) ([3]; All dose levels (n= 26)): 1(4) n (%)
- Hypophosphatemia, Grade 3/4 (%) ([3]; All dose levels (n= 26)): 6(23) n (%)
- Limb edema, Grade 3/4 (%) ([3]; All dose levels (n= 26)): 1 (4) n (%)
- Lung infection, Grade 3/4 (%) ([3]; All dose levels (n= 26)): 2(8) n (%)
- Lymphocyte count decreased, Grade 3/4 (%) ([3]; All dose levels (n= 26)): 26 (100) n (%)
- Neutrophil count decreased, Grade 3/4 (%) ([3]; All dose levels (n= 26)): 21 (81) n (%)
- Non-cardiac chest pain, Grade 3/4 (%) ([3]; All dose levels (n= 26)): 1(4) n (%)
- Pain in extremity, Grade 3/4 (%) ([3]; All dose levels (n= 26)): 1(4) n (%)
- Platelet count decreased, Grade 3/4 (%) ([3]; All dose levels (n= 26)): 12 (46) n (%)
- Thromboembolic event, Grade 3/4 (%) ([3]; All dose levels (n= 26)): 3(12) n (%)
- Tumor lysis syndrome, Grade 3/4 (%) ([3]; All dose levels (n= 26)): 1(4) n (%)
- Urinary tract infection, Grade 3/4 (%) ([3]; All dose levels (n= 26)): 1(4) n (%)
- White blood cell decreased, Grade 3/4 (%) ([3]; All dose levels (n= 26)): 24 (92) n (%)
- Alanine aminotransferase increased, Grade 3/4 [3, 12]: 3
- Aspartate aminotransferase increased, Grade 3/4 [3, 12]: 4
- Ejection fraction decreased, Grade 3/4 [3, 12]: 1
- Electrocardiogram QT corrected interval prolonged, Grade 3/4 [3, 12]: 1
- Enterocolitis infectious, Grade 3/4 [3, 12]: 1
- Febrile neutropenia, Grade 3/4 [3, 12]: 3
- Hearing impaired, Grade 3/4 [3, 12]: 1
- Hypermagnesemia, Grade 3/4 [3, 12]: 3
- Hypoalbuminemia, Grade 3/4 [3, 12]: 1
- Hypomagnesemia, Grade 3/4 [3, 12]: 1
- Hypophosphatemia, Grade 3/4 [3, 12]: 4
- Lung infection, Grade 3/4 [3, 12]: 2
- Lymphocyte count decreased, Grade 3/4 [3, 12]: 24
- Neutrophil count decreased, Grade 3/4 [3, 12]: 19
- Non-cardiac chest pain, Grade 3/4 [3, 12]: 1
- Pain in extremity, Grade 3/4 [3, 12]: 1
- Platelet count decreased, Grade 3/4 [3, 12]: 10
- Thromboembolic event, Grade 3/4 [3, 12]: 3
- Urinary tract infection, Grade 3/4 [3, 12]: 1
- White blood cell decreased, Grade 3/4 [3, 12]: 22
- Alanine aminotransferase increased, Grade 3/4 [3, 13]: 1
- Aspartate aminotransferase increased, Grade 3/4 [3, 13]: 2
- Atrial fibrillation, Grade 3/4 [3, 13]: 1
- Enterocolitis infectious, Grade 3/4 [3, 13]: 1
- Hypoalbuminemia, Grade 3/4 [3, 13]: 1
- Hypophosphatemia, Grade 3/4 [3, 13]: 2
- Lymphocyte count decreased, Grade 3/4 [3, 13]: 2
- Neutrophil count decreased, Grade 3/4 [3, 13]: 2
- Platelet count decreased, Grade 3/4 [3, 13]: 2
- Tumor lysis syndrome, Grade 3/4 [3, 13]: 1
- White blood cell decreased, Grade 3/4 [3, 13]: 2
- Patients requiring dose reductions of PAC due to toxicities ([3]; belinostat + PAC, n=26): 35%
- Patients who discontinued treatment due to adverse events ([3]; belinostat + PAC, n=26): Four
- Patients with QTc prolongation ([3]; belinostat + PAC, n=26, any grade, one grade 3 event): 35%
- Median overall survival [4]: 21.4 months
- Median progression-free survival [4]: 7.2 months
- Complete response ([4]; 14 evaluable patients): 0 n (%)
- Disease control rate (95% confidence interval) ([4]; 14 evaluable patients): 93 (66.1–99.8) %
- Objective Response Rate (95% confidence interval) ([4]; 14 evaluable patients): 21 (4.7–50.8) %
- Partial Response ([4]; 14 evaluable patients): 3 (21) n (%)
- Progressive Disease ([4]; 14 evaluable patients): 1 (7) n (%)
- Patients with increase in total protein hyperacetylation of CD3+ cells ([5]; 21 of 23 patients, after belinostat): 91%
- Increase in total protein hyperacetylation of CD3+ cells, median ([5]; after belinostat): 2.5 fold
- p21 expression in CD14+ cells ([5]; after belinostat alone, p=0.019): increased
- PBMC acetylated tubulin ([5]; after belinostat, p<0.0001): increased significantly
- Total protein hyperacetylation of CD3+ cells ([5]; after belinostat, p<0.0001): increased significantly
- Total protein hyperacetylation of CD14+ cells ([5]; after belinostat, p= 0.026): increased only marginally
- p21 expression in CD14+ cells [5, 14]: increased
- PBMC acetylated tubulin ([5]; following belinostat plus chemotherapy, p=0.0001): increased significantly
- Fraction of CTLA4-expressing Tregs ([6]; after belinostat alone, p=0.0078): increased significantly
- Fraction of CTLA4-expressing Tregs ([6]; after belinostat plus chemotherapy, p<0.0001): increased significantly
- TIM3+ CD8+T cells ([6]; following belinostat alone vs baseline, p < 0.0001): decreased significantly
- PD-1+ CD8+ T cells ([6]; following belinostat alone vs baseline, p=0.01): decreased significantly
- Number of Tregs ([6]; following belinostat alone, p=0.0009): decreased significantly
- Number of Tregs [6, 14]: decreased significantly
- TIM3+ CD8+T cells ([6]; following belinostat with chemotherapy vs baseline, p <0.0001): decreased significantly
- Median progression-free survival ([6]; patients with greater decline in Tregs post-combination therapy): not reached
- Median progression-free survival ([6]; patients with greater decline in post-combination therapy TIM3+ CD8+T cells): not reached
- Median OS ([6]; patients with higher pre-treatment CTLA4-expressing Tregs): 18.8 months
- Median progression-free survival ([6]; patients with lesser decreases in TIM3+ CD8+T cells): 7.8 months
- Median OS ([6]; patients with lower pre-treatment CTLA4-expressing Tregs): 37.5 months
- Median DOR [7]: not reached
- Median overall survival [7]: Not reached
- Median progression-free survival [7]: Not reached
- Complete response ([7]; 11 evaluable patients): 1 (9) n (%)
- Disease control rate (95% confidence interval) ([7]; 11 evaluable patients): 100 (71.5–100.0) %
- Objective Response Rate (95% confidence interval) ([7]; 11 evaluable patients): 64 (30.8–89.1) %
- Partial Response ([7]; 11 evaluable patients): 6 (55) n (%)
- Progressive Disease ([7]; 11 evaluable patients): 0 n (%)
- Stable Disease ([7]; 11 evaluable patients): 4 (36) n (%)
- Dose-limiting toxicities ([8]; 2000 mg/m^2 belinostat (dose level 2) with PAC, in two patients): grade 3 nausea and diarrhea and grade 4 neutropenia and thrombocytopenia
- Maximum-tolerated dose (MTD) of belinostat ([8]; CIVI over 48 hours with PAC, 3-week cycles): 1000 mg/m^2
- Elimination half-life ([9]; administered IV with paclitaxel and carboplatin): 102 min
- Elimination half-life ([9]; administration over 30 minutes): 31.2 to 32.4 min
- Elimination half-life ([9]; orally alone): 114 min
- Patients who underwent R0 or R1 resection ([10]; 9 of 23 assessed after at least 4 cycles of belinostat + PAC): 39%
- Patients with PD [10, 15]: 4%
- Patients with PRs [10, 15]: 30%
- Patients with CR ([10]; 23 evaluable patients treated at dose level 1 (belinostat 1000 mg/m^2 + PAC)): 4%
- Patients with no evidence of disease at the time of reporting ([10]; Six of 23, after multimodality therapy): 26%
- Median progression-free survival ([10]; belinostat + PAC, Total): 9 months and 9.0 months
- Complete response [10, 16]: 1 (4) n (%)
- Disease control rate (95% confidence interval) [10, 16]: 96 (79.7 –99.9) %
- Objective Response Rate (95% confidence interval) [10, 16]: 40 (21.1 –61.3) %
- Partial Response [10, 16]: 9 (36) n (%)
- Progressive Disease [10, 16]: 1 (4) n (%)
- Stable Disease [10, 16]: 14 (56) n (%)
- Median overall survival ([10]; belinostat + PAC, Total, median potential follow up 20.5 months): 28.5 months
- Plasma concentration of belinostat during the 48-hour infusion ([11]; 250 mg/m^2 per 12-h infusion, with PAC): around 1 μM
- clearance ([11]; Clearance, range, 48-hr CIVI, cycle 1, all patients): 683 to 13200 mL/min
- clearance ([11]; Clearance, range, after excluding outlier patient): 683 to 3350 mL/min
- half-life ([11]; Half-life, range, 48-hr CIVI): 12 to 54.6 min
- clearance ([11]; Mean clearance, 48-hr CIVI, cycle 1, all patients): 2220 mL/min
- half-life ([11]; Mean half-life, 48-hr CIVI): 28.2 min
- clearance ([11]; Total systemic clearance, the only patient with high serum creatinine (1.43 mg/dL)): 1770 mL/min
- Differences in CMAX, AUCINF, clearance and half-life between genders and races ([11]; in vivo): no statistically significant differences
